Assays:
[1] = target: T1, Tyrosine-protein kinase ZAP-70 (Homo sapiens) (UniProt P43403); experiment: Selectivity interaction (Kinase panel (literature)) EUB0001199aCl ZAP70; details: at 1 µM
T1 sequence (whole entry): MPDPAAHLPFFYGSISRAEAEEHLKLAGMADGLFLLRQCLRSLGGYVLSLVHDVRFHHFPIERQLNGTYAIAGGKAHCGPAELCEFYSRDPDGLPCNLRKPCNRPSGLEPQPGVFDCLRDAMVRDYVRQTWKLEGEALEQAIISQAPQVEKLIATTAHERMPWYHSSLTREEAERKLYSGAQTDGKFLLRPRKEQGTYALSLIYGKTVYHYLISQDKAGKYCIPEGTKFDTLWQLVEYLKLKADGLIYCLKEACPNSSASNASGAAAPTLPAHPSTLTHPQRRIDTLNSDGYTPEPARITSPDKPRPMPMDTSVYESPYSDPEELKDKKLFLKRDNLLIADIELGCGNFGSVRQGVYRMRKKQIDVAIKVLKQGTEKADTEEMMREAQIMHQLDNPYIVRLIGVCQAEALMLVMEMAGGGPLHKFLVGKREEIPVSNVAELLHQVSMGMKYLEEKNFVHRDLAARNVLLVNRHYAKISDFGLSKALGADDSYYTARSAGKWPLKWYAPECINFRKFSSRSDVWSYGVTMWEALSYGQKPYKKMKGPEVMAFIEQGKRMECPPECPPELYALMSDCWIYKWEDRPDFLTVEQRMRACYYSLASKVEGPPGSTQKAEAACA

[2] = target: Serine/threonine-protein kinase pim-2 (Homo sapiens, UniProt Q9P1W9); experiment: Selectivity interaction (KinomeScan (DiscoverX)) EUB0000666a PIM2; details: at 10 µM
Chain of Serine/threonine-protein kinase pim-2 (Q9P1W9 whole entry, looked up): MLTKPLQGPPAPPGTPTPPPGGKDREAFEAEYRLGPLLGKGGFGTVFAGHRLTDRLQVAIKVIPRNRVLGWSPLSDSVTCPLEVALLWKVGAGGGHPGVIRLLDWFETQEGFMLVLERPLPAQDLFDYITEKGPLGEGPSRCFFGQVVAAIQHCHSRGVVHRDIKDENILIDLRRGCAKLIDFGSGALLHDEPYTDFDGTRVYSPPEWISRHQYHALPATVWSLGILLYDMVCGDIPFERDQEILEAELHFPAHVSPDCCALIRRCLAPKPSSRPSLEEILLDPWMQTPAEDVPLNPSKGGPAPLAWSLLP

[3] = target: Tyrosine-protein kinase Fyn (Homo sapiens) (UniProt P06241); experiment: Selectivity interaction (KinomeScan (DiscoverX)) EUB0000229b FYN; details: at 10 µM
Chain of Tyrosine-protein kinase Fyn (Homo sapiens) (P06241 2-537 limits assumed): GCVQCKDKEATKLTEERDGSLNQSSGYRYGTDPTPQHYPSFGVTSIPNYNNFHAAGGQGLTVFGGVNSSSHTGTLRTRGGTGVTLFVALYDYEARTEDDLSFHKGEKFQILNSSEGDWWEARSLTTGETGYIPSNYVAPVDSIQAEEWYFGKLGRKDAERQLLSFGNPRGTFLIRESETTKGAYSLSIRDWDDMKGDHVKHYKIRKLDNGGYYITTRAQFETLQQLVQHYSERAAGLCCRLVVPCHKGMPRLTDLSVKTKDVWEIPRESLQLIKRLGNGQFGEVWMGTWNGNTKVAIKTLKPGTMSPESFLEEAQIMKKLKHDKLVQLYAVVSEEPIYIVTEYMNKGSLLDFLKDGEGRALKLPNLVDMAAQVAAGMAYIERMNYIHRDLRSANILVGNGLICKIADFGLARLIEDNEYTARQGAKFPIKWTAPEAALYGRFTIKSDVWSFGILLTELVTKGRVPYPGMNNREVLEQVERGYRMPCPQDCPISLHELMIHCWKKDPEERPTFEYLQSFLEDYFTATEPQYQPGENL

[4] = target: T2, Serine/threonine-protein kinase Nek1 (Homo sapiens) (UniProt Q96PY6); experiment: Selectivity interaction (KinomeScan (DiscoverX)) EUB0000229b NEK1; details: at 10 µM
T2 sequence (whole entry): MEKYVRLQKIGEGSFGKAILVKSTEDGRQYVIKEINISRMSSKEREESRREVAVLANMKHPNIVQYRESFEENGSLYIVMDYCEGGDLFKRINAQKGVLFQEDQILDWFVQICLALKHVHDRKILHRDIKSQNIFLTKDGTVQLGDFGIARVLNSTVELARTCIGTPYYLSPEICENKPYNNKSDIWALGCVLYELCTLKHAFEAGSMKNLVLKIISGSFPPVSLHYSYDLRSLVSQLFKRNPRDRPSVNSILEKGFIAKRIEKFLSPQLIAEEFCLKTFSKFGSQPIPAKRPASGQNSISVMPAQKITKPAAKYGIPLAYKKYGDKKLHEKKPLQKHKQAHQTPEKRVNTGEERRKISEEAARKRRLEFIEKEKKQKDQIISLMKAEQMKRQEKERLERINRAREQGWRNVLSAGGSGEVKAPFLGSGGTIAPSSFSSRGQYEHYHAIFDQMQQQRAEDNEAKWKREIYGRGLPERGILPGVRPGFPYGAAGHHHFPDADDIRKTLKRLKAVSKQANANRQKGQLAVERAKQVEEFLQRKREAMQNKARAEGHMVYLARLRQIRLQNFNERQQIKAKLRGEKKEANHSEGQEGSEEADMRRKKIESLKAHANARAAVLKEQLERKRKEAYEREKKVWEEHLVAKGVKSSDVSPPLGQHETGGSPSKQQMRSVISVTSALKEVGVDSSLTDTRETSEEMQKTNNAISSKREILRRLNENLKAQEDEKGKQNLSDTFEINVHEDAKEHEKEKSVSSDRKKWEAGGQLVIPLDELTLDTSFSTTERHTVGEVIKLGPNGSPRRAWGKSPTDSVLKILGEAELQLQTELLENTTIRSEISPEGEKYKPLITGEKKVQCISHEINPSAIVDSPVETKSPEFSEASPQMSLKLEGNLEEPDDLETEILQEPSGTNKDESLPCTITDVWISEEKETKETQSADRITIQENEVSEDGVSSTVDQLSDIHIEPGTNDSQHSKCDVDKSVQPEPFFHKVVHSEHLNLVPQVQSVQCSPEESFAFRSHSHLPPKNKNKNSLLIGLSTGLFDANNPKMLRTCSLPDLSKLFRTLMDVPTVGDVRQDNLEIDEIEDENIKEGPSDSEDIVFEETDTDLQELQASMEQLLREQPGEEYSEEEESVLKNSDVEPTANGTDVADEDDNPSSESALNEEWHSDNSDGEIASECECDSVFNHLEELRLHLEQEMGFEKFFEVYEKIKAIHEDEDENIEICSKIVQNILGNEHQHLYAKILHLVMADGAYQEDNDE

[5] = target: T3, Dual specificity mitogen-activated protein kinase kinase 4 (Homo sapiens) (UniProt P45985); experiment: Selectivity interaction (KinomeScan (DiscoverX)) EUB0000229b MAP2K4; details: at 10 µM
T3 sequence (whole entry): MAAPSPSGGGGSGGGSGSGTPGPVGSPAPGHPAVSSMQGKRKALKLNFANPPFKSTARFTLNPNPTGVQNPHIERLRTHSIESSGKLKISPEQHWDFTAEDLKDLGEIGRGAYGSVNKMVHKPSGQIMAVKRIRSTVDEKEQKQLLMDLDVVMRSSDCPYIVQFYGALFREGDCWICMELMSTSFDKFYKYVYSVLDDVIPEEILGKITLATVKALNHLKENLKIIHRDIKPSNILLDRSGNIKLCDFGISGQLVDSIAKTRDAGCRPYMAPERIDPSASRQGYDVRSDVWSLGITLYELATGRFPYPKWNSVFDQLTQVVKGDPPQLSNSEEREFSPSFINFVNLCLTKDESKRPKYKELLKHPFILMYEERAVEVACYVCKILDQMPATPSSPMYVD

Ephrin type-B receptor 4 = Ephrin type-B receptor 4 (Homo sapiens, UniProt P54760); experiment: Selectivity interaction (Kinase panel (33PanQinase(R) Activity Assay)) EUB0000877a EPHB4
[6] = target: MAP/microtubule affinity-regulating kinase 3 (Homo sapiens) (UniProt P27448); experiment: Selectivity interaction (Kinase panel (DSF assay)) EUB0001559a MARK3
Chain of MAP/microtubule affinity-regulating kinase 3 (Homo sapiens) (P27448 whole entry, looked up): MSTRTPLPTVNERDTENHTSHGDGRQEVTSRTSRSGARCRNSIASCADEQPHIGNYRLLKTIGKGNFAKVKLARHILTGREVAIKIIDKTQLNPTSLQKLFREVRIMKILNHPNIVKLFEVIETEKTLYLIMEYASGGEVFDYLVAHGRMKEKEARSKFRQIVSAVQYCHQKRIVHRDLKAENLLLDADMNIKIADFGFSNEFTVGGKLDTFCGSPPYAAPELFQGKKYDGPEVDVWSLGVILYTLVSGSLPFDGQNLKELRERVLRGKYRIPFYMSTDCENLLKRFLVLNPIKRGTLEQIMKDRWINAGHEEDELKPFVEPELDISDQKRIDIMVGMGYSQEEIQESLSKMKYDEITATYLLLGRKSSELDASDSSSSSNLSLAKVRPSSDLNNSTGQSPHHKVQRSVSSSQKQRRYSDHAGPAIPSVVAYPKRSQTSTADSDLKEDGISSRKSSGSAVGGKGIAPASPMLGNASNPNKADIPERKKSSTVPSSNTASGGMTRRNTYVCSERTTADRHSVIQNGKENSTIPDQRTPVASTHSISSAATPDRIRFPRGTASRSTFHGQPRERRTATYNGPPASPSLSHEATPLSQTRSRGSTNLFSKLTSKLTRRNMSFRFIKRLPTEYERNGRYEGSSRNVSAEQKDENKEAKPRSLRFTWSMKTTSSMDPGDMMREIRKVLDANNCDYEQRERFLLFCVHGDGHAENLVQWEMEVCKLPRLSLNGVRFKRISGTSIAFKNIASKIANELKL

[7] = target: 5'-AMP-activated protein kinase catalytic subunit alpha-2 (Homo sapiens) (UniProt P54646); experiment: Selectivity interaction (ActivX KiNativ screen (kinase selectivity in THP-1 cell lysates)) EUB0000639a PRKAA2; type: subcellular; details: lysate, at 1 µM
Chain of 5'-AMP-activated protein kinase catalytic subunit alpha-2 (Homo sapiens) (P54646 whole entry, looked up): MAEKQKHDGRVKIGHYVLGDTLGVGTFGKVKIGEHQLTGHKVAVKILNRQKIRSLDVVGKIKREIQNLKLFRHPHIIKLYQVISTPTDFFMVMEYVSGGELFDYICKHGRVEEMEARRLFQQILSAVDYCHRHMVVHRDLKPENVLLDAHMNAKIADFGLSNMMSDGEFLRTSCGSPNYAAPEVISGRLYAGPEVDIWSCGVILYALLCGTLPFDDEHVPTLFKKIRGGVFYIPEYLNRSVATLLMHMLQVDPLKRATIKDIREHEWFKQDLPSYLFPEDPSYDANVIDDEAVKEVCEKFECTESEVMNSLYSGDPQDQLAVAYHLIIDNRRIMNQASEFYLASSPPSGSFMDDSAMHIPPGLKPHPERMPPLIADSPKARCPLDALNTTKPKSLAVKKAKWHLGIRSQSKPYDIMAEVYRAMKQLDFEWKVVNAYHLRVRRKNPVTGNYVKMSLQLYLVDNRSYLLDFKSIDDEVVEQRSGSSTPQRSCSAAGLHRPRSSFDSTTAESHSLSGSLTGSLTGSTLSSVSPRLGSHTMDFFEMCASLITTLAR

[8] = target: Cyclin-dependent kinase-like 3 (Homo sapiens) (UniProt Q8IVW4); experiment: Selectivity interaction (KinomeScan (DiscoverX)) EUB0000045b CDKL3
Chain of Cyclin-dependent kinase-like 3 (Homo sapiens) (Q8IVW4 whole entry, looked up): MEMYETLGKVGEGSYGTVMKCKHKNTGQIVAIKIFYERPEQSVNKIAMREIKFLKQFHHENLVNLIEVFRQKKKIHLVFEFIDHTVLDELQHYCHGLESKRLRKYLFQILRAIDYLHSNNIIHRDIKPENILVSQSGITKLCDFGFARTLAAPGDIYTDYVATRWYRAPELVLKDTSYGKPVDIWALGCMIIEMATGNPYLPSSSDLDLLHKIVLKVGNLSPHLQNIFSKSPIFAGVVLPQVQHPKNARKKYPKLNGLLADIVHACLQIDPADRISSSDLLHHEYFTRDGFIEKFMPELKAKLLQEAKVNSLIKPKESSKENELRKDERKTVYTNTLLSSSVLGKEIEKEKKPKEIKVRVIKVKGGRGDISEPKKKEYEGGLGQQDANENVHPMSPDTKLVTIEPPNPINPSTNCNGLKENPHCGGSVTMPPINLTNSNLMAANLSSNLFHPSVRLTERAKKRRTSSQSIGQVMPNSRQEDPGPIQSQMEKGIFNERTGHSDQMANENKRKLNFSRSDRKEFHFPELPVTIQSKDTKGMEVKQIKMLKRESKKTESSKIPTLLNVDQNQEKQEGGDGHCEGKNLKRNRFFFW

[9] = target: Serine/threonine-protein kinase/endoribonuclease IRE1 (Homo sapiens) (UniProt O75460); experiment: Selectivity interaction (KinomeScan (DiscoverX)) EUB0000045b ERN1
Chain of Serine/threonine-protein kinase/endoribonuclease IRE1 (Homo sapiens) (O75460 19-977 limits assumed): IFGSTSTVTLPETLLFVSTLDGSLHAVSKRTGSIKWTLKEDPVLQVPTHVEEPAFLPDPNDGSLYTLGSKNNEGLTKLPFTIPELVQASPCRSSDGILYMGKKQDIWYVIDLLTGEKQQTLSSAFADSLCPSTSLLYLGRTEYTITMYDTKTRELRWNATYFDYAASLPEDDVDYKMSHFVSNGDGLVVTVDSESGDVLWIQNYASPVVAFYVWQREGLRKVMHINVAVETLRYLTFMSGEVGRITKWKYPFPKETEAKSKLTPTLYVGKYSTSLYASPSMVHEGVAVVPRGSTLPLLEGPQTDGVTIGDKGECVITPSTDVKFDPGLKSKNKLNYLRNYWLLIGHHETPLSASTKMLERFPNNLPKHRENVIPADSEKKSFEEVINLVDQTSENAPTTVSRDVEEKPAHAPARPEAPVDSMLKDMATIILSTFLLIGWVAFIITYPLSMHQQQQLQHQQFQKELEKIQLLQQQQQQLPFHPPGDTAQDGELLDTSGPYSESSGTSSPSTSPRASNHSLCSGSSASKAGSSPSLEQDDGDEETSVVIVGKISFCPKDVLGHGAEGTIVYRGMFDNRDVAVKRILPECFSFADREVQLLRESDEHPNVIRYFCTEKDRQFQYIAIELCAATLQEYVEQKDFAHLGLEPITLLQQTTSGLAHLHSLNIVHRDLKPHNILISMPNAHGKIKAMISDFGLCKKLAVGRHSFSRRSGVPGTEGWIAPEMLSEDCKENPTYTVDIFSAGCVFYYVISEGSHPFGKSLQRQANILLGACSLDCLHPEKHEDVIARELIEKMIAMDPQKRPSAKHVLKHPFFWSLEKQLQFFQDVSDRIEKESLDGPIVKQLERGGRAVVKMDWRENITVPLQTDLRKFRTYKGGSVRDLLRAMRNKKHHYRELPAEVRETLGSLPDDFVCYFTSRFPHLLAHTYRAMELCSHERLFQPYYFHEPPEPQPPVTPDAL

[10] = target: Myosin light chain kinase 2, skeletal/cardiac muscle (Homo sapiens) (UniProt Q9H1R3); experiment: Selectivity interaction (KinomeScan (DiscoverX)) EUB0001619a MYLK2; details: at 1 µM
Chain of Myosin light chain kinase 2, skeletal/cardiac muscle (Homo sapiens) (Q9H1R3 whole entry): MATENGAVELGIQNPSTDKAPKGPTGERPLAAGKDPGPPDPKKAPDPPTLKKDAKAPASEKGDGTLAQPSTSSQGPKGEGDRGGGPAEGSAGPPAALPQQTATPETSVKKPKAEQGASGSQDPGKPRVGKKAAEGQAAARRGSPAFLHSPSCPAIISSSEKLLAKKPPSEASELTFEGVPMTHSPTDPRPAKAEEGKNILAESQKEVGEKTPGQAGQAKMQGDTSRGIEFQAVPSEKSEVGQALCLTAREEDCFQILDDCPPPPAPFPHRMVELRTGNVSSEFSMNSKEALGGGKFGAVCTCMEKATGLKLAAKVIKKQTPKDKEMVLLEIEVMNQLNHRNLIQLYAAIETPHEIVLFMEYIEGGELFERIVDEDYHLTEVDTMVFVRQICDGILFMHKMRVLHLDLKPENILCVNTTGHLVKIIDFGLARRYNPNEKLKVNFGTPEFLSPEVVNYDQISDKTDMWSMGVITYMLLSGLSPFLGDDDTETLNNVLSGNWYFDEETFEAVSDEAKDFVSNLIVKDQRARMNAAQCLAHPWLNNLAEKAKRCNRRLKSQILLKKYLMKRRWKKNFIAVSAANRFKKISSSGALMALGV

CN1Cc2nccc(-c3cn(C)nc3-c3ccc(F)cc3)c2C1=O
% of inhibition [1]: 6%

O=C(NOC[C@H](O)CO)c1ccc(F)c(F)c1Nc1ccc(I)cc1F
% of control [2]: 75%

COc1cc(N(C)c2ccnc3ccc(C(F)(F)F)cc23)cc(OC)c1OC
% binding [3]: 100% | % binding [4]: 78% | % binding [5]: 100%

CCC(=O)N1CC[C@H](Nc2ncnc3c2CN(c2cnc(OC)c(C(F)(F)F)c2)CC3)C1 [LENIOLISIB]
IC50 (Ephrin type-B receptor 4): > 10 µM

CN(C(=O)c1cnn2cccnc12)c1cc2c(cc1N1CCOCC1)C(=O)N(C[C@@H](F)C(C)(C)O)C2
dTM [6]: 0.7 K

CC[C@@H]1[C@H](F)C(=O)N[C@@H]1COc1nccc2cc(C(N)=O)c(OC)cc12 [ZIMLOVISERTIB]
% of inhibition [7]: -4.6%

C=CC(=O)Nc1cc(-n2c(=O)ccc3cnc4ccc(-c5ccc(NS(C)(=O)=O)cc5)cc4c32)ccc1C
% of control ([8]; at 1 µM): 100% | % of control ([8]; at 10 µM): 96% | % of control ([9]; at 1 µM): 100% | % of control ([9]; at 10 µM): 99%

N#Cc1cccc(-c2c[nH]c3ncnc(N4CCOCC4)c23)c1
% of control [10]: 92%

Source: ChEMBL document CHEMBL5465560, “Selectivity Literature for EUbOPEN Chemogenomic Library” (2024)
